Consider 6 compounds from paper PMC5785958, “New role of phenothiazine derivatives as peripherally acting CB1 receptor antagonizing anti-obesity agents” (Scientific Reports, 2018).

As a reminder, the EC50 is the concentration giving half of the maximal effect. As usually defined, the melting point is the temperature, or range, at which the solid turns liquid.

For data set [1], the system named is CB1R. Further details: method as in PMID 20652930. Particulars: read-out: CB1R antagonist activity EC50; cited from earlier work.
Data set [2] can be described thus: PAMPA-BBB in vitro permeability assay. Type of data set: in vitro ADME, porcine. Details: key to Prediction (penetration in CNS): CNS- indicates low passive CNS permeation. The following applies: for Prediction (penetration in CNS): from PAMPA-BBB Pe, Pe less than 3.8 × 10^−6 cm s^−1 = low BBB permeation; for Papp at 120 min, 100 µg/ml: pig, PAMPA-BBB, porcine brain lipid, PBS/ethanol (70:30), 25 °C, mean ± SEM of three experiments, read-out: Pe. As to the method: As discussed above, BBB permeation of the available CB1 receptor antagonists limits their therapeutic utility. A successful CB1 receptor antagonist to be used as anti-obesity agent must be devoid of BBB permeability. […] In this study, the ability of the test compounds to cross the BBB was determined by the well established in vitro model PAMPA-BBB assay. This simple and rapid model has the advantage to predict passive BBB permeation with high accuracy[57],[58]. The in vitro permeability (Pe) of the test compounds through the lipid extract of porcine brain was determined in PBS/ethanol (70:30).
To assess the in vivo brain permeability potential of the test compounds, PAMPA assay for BBB was performed as reported by Di. et al.[57]. The donor microplate (polyvinylidene fluoride (PVDF) membrane, diameter 25 mm, pore size 0.45 µm Millipore) and the acceptor microplate were used for the experiment. The acceptor microplate was filled with 200 µl phosphate buffer saline (PBS) and ethanol in the ratio of 70:30 whereas the donor microplate filter surface was impregnated with porcine brain lipid (Avanti Polar Lipids) in dodecane (Sigma) (4 µl of 20 mg/ml). 200 µl of the test compound (100 µg/ml in PBS/ethanol) was added to the donor well. A sandwich was formed by placing the donor plate carefully on the acceptor plate, and the plates were kept undisturbed for 120 min at 25 °C. The donor plate was carefully detached after the incubation period and concentration of the test compound in the acceptor wells was determined using UV spectroscopy. Each sample was analyzed in four wells at five different wavelengths, and at least in three independent runs. Assay validation was performed by using nine commercial quality standard drugs of known BBB permeability[75] in which the reported permeability values of the standards were compared with their experimental permeability values, which gave a linear relationship, Pe(exp.) = 1.171Pe(bibl.) + 1.489 (R^2 = 0.983)[57],[58].

Data set [3] relates to Wistar rats. The experiment in a line: Acute hypophagic response in 24 h food-deprived rats. In kind it is in vivo, rat. The following applies: for effect on food intake (in words): 2 h; for food intake (control = 100%): 10 mg/kg. As to the method: As a preliminary screening, the synthesized compounds were evaluated for acute hypophagia in rats and the results are summarized in Fig. 5. Twenty four hour food deprived Wistar rats were given weighed amounts of food pellets after administration of the test compounds. Quantum of food consumed by the control group of animals was considered as 100%.
Male Wistar rats weighing 200–250 g were used in the present study to assess the acute hypophagic response. Animals were housed individually in a plexi-glass cage in a temperature and humidity controlled room with a 12 h light/dark cycle. Standard chow pellets and water were made available ad libitum. Animals were handled daily for a week before performing the actual experiments. The animal study protocol was approved by the Institutional Animal Ethics Committee (IAEC) of Faculty of Pharmacy, The Maharaja Sayajirao University of Baroda (Approval no. MSU/IAEC/2014-15/1401). The experiments were conducted in accordance to the guidelines of CPCSEA (Committee for the Purpose of Control and Supervision of Experiments on Animals), Ministry of Environment & Forests, Govt. of India. We tried our best to reduce the number of animals and their suffering.
The acute effect of the synthesized test compounds on feeding behavior was assessed in 24 h food-deprived animals. Before performing the experiments, the bedding material was removed from the cage. The animals were deprived of feed for 24 h with free access to water. The fasted animals were administered with the test compounds (10 mg/kg, p.o.). After 30 min of administration, weighed amounts of food pellets were served to the animals. Amount of food pellets and food spillage remaining after 2 h were weighed to find out the amount of food consumed by the animals.

Data set [4] deals with T1, CB1 receptor (Rattus norvegicus, UniProt P20272).
T1 construct: from tissue; host or cells: whole living animal (male Wistar rat); receptor endogenous in central and peripheral tissues
The experiment in a line: In vivo CB1 receptor antagonistic activity against WIN-55212-2 hyperphagia. Particulars: 24 h fasted rats, test compound 10 mg/kg p.o., WIN-55212-2 2 mg/kg i.p. How it is done:
Here also, the quantity of feed consumed by the control group animals was taken as 100%.
In another set of experiments, in vivo CB1 receptor antagonistic activity of the test compounds was assessed.

Details of data set [5]: method as in PMID 20664173. Particulars: cited from earlier work.
Setting [6] is: 24 h fasted male Wistar rats, 10 mg/kg p.o.
[7] abbreviates: 24 h fasted male Wistar rats, 10 mg/kg p.o., food served after 30 min, intake over 2 h.

T1 sequence (P20272 whole entry): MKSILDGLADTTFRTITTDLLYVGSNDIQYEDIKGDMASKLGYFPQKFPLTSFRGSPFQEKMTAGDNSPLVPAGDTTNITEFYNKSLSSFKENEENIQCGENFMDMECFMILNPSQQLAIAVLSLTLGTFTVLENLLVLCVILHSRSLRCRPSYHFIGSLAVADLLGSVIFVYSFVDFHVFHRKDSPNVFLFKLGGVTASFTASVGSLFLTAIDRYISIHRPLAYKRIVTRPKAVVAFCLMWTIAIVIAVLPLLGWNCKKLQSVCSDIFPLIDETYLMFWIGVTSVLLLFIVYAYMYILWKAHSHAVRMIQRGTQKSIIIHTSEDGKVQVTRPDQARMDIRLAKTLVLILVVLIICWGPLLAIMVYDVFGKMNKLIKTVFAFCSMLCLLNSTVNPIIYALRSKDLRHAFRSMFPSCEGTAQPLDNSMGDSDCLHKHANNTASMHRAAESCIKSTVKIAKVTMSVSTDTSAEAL

As for `CCc1c(C(=O)NN2CCCCC2)nn(-c2ccc(Cl)cc2Cl)c1-c1ccc(C#Cc2ccc(C(F)(F)F)cc2)s1` [TM38837], the EC50 in data set [1] was 8.5 nM.

`COc1ccc2c(c1)N(C(=O)CSc1ncc(C#N)c(N)n1)c1ccccc1S2` [Compound 23, 4-Amino-2-(2-(2-methoxy-10H-phenothiazin-10-yl)-2-oxoethylthio)pyrimidine-5-carbonitrile] displayed a melting point of 215 to 217 °C. For the same compound, in data set [2], the “Prediction (penetration in CNS)” value is listed as “CNS-” and the Papp at 120 min, 100 µg/ml is 3.08 ± 0.16 ×10⁻⁶ cm/s. For the same compound, the “effect on food intake (in words)” value in data set [3] (setting [6]) is “significant hypophagic activity”. Besides, the “food intake (control = 100%)” value in data set [3] (setting [7]) is given as 19–43%. The “food intake (control = 100%)” value in data set [3] (po) was 19%. For the same compound, in data set [4], the “effect on hyperphagic effect of WIN-55212-2 (in words)” value (shortened to “effect on hyperphagic effect”) is “suppressed the hyperphagic effect of WIN-55212-2”.

For the compound `Cc1c(C(=O)NN2CCS(=O)(=O)CC2)nn(-c2ccc(Cl)cc2Cl)c1-c1ccc(C#CCCC#N)cc1` [AM-6545], the “brain penetration (in words)” value in data set [5] was “limited brain penetration”.

`CCOC(=O)c1cnc(SCC(=O)N2c3ccccc3Sc3ccc(C(F)(F)F)cc32)nc1N` [Compound 25, Ethyl 4-amino-2-(2-(2-trifluoromethyl-10H-phenothiazin-10-yl)-2-oxoethylthio)-pyrimidine-5-carboxylate]: the melting point lay in the range of 148 to 151 °C. Moreover, in data set [2], the “Prediction (penetration in CNS)” value is reported as “CNS-” and the Papp at 120 min, 100 µg/ml was 2.72 ± 0.19 ×10⁻⁶ cm/s. Further, the “effect on food intake (in words)” value in data set [3] (setting [6]) was “significant hypophagic activity”. Moreover, the “food intake (control = 100%)” value in data set [3] (setting [7]) was 19–43%. Besides, the “food intake (control = 100%)” value in data set [3] (po) was found to be 37%. In addition, the “effect on hyperphagic effect” value in data set [4] is recorded as “suppressed the hyperphagic effect of WIN-55212-2”.

With `CCOC(=O)c1cnc(SCC(=O)N2c3ccccc3Sc3ccc(OC)cc32)nc1N` [Compound 27, Ethyl 4-amino-2-(2-(2-methoxy-10H-phenothiazin-10-yl)-2-oxoethylthio)pyrimidine-5-carboxylate], the melting point was 104 to 106 °C. Also, in data set [2], the “Prediction (penetration in CNS)” value was “CNS-” and the Papp at 120 min, 100 µg/ml is 2.8 ± 0.58 ×10⁻⁶ cm/s. For the same compound, the “effect on food intake (in words)” value in data set [3] (setting [6]) is “significant hypophagic activity”. The “food intake (control = 100%)” value in data set [3] (setting [7]) is on record as 19–43%. Further, in data set [3] (po), the “food intake (control = 100%)” value is reported as 19%. The “effect on hyperphagic effect” value in data set [4] is given as “suppressed the hyperphagic effect of WIN-55212-2”.

With `Nn1c(SCC(=O)N2c3ccccc3Sc3ccc(Cl)cc32)nnc1-c1ccncc1` [Compound 34, 2-(4-Amino-5-(4-pyridyl)-4H-1,2,4-triazol-3-ylthio)-1-(2-chloro-10H-phenothiazin-10-yl)ethanone], the melting point fell in the range of 225 to 227 °C. In data set [2], the “Prediction (penetration in CNS)” value is “CNS-” and the Papp at 120 min, 100 µg/ml was 2.09 ± 0.82 ×10⁻⁶ cm/s. In data set [3] (setting [6]), the “effect on food intake (in words)” value was “significant hypophagic activity”. Also, in data set [4], the “effect on hyperphagic effect” value was “suppressed the hyperphagic effect of WIN-55212-2”.
